# Test results taken from publication PMC4865847, “Putative histidine kinase inhibitors with antibacterial effect against multi-drug resistant clinical isolates identified by in vitro and in silico screens” (Scientific Reports, 2016).
# Where two headings read alike, the source gives them in different places.
# What was measured:
# [1] = target: S. aureus PhoR (PhoR^S) (Staphylococcus aureus, UniProt Q2FXN7); assay: In vitro autophosphorylation kinase assay with γ-32P-ATP, PhoR^S; assay type: biochemical; settings: autophosphorylation, one time point (30 sec), 10% DMSO
# S. aureus PhoR (PhoR^S), sequence (Q2FXN7 entry or part of it): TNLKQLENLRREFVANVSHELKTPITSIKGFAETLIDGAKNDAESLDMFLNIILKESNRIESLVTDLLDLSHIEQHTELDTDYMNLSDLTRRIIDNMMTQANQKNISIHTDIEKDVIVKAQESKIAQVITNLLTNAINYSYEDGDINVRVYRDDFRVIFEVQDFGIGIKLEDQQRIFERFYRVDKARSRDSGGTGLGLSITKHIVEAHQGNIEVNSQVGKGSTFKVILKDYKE
# Method: (§1) To evaluate the inhibitory capacity of selected hits from DSF, SBVS and LBSS in vitro autophosphorylation kinase assays with γ-^32P-ATP were performed as previously described. Ligands were dissolved in 100% DMSO. […] Controls lacking ligands contained an equal concentration of DMSO. Inhibition of autophosphorylation was determined by incubating 0.12 mg/ml (≈4 μM) HK and up to 20 mM fragment in kinase buffer (50 mM Tris HCl, pH 8.5, 50 mM KCl, 5 mM MgCl2, 0.5 mM EDTA and 0.1 mM DTT). Autophosporylation reactions were initiated by addition of 0.1 μCi/μl γ-^32P-ATP containing from 0.03 to 0.06 μM ATP (final concentrations). Autophosphorylation was quenched with 2xSDS-PAGE sample buffer supplemented with 50 mM EDTA. Samples were applied without heating to 15% (w/v) Tris-glycine SDS-polyacrylamide gels. After electrophoresis, the bottoms of the gels were removed to lower the background from the unincorporated radiolabeled ATP. Gels were dried without staining on a Bio-Rad Gel Air drying system and the phosphorylated protein was quantified by phosphor-imaging. Prism GraphPad was used for curve fitting and statistical analysis.
# [2] = target: T1, E. coli PhoR (PhoR^E) (Escherichia coli, UniProt P08400); assay: In vitro autophosphorylation kinase assay with γ-32P-ATP, PhoR^E; assay type: biochemical; settings: for IC50: autophosphorylation, one time point (30 sec), 10% DMSO; for inhibition at 2000 µM: 2 mM, 30 sec, compared to negative control
# T1 construct: The catalytic portion (DHp and CA domain) of E. coli PhoR (PhoR^E); made in house; host or cells: E. coli RIL
# T1 sequence (P08400 210-425): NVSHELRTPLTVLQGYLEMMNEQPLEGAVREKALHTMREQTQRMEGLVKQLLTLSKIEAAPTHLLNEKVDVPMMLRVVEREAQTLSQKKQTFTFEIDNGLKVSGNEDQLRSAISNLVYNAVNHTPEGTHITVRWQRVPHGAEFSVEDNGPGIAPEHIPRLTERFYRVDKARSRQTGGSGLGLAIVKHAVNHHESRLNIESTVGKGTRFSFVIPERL
# Method: as §1, with “Samples were applied without heating to 15% (w/v) Tris-glycine SDS-polyacrylamide gels.” left out
# [3] = target: T2, T. maritima HK853 (Thermotoga maritima, UniProt Q9WZV7); assay: In vitro autophosphorylation kinase assay with γ-32P-ATP, HK853; assay type: biochemical
# T2 sequence (Q9WZV7 232-489): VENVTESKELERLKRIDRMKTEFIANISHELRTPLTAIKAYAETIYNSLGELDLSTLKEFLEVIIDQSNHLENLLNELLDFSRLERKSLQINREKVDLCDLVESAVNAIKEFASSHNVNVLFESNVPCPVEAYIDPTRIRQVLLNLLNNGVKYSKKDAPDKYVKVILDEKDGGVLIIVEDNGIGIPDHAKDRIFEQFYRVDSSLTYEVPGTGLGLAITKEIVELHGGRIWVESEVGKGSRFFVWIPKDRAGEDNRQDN
# Method: as §1
# [4] = target: T3, S. pneumoniae WalK (Streptococcus pneumoniae, UniProt Q8DPL8); assay: In vitro autophosphorylation kinase assay with γ-32P-ATP, WalK; assay type: biochemical; settings: autophosphorylation, one time point (30 sec), 10% DMSO
# T3 construct: WalK (amino acids from 208 to 449); N-terminal His6-3C site of vector pOPINF (own knowledge of the vector); made in house; host or cells: E. coli RIL
# T3 sequence (Q8DPL8 208-449): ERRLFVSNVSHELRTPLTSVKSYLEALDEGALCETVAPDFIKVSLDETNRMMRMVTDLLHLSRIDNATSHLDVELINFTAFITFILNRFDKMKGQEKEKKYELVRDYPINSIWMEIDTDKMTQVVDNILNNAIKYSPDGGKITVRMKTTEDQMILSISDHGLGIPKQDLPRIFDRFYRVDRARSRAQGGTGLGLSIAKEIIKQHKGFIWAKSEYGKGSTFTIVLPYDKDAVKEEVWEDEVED
# Method: as §1, with “Samples were applied without heating to 15% (w/v) Tris-glycine SDS-polyacrylamide gels.” left out
# [5] = tested on: Staphylococcus aureus; assay: Antibacterial susceptibility testing (MIC/MBC), S. aureus; assay type: cell-based; settings: for MIC / MBC: Staphylococcus aureus
# Method: (§2) Minimal inhibitory concentrations (MICs) were determined following a standard double-dilution method. […] For S. pneumoniae MICs were determined by adapting the standard double-dilution method to anaerobic conditions and of this microorganism (use of Todd Hewitt Yeast extract with 200 U/mL of catalase and continuous monitoring of growth).
# [6] = tested on: Staphylococcus epidermidis; assay: Antibacterial susceptibility testing (MIC/MBC), S. epidermidis; assay type: cell-based
# Method: as §2
# [7] = tested on: Escherichia coli; assay: Antibacterial susceptibility testing (MIC/MBC), E. coli; assay type: cell-based; settings: Escherichia coli
# Method: as §2
# [8] = tested on: Streptococcus suis; assay: Antibacterial susceptibility testing (MIC), S. suis; assay type: cell-based
# Method: (§3) Bacterial strains used in this study for antibacterial susceptibility testing (Table S5) were propagated using standard microbiological procedures. Minimal inhibitory concentrations (MICs) were determined following a standard double-dilution method. MICs were recorded as the lowest concentration of the compound where no visible growth was observed. After plating the dilutions around the MIC or growing them in fresh MH media, minimal bactericidal concentration (MBC) was recorded as the lowest concentration of the compound at which no colonies were formed or no growth was observed, respectively. For S. pneumoniae MICs were determined by adapting the standard double-dilution method to anaerobic conditions and of this microorganism (use of Todd Hewitt Yeast extract with 200 U/mL of catalase and continuous monitoring of growth).
# [9] = tested on: Acinetobacter baumannii; assay: Antibacterial susceptibility testing (MIC), A. baumannii; assay type: cell-based; settings: MDR clinical isolate NM8, read-out: MIC A. baumannii NM8
# Method: as §3
# [10] = tested on: Stenotrophomonas maltophilia; assay: Antibacterial susceptibility testing (MIC), S. maltophilia; assay type: cell-based; settings: clinical isolate B32/1, read-out: MIC S. maltophilia B32/1
# Method: as §3
# [11] = tested on: Klebsiella pneumoniae; assay: Antibacterial susceptibility testing (MIC), K. pneumoniae; assay type: cell-based; settings: Klebsiella pneumoniae, ATCC700603, strain ATCC 700603
# Method: as §3
# [12] = tested on: Pseudomonas aeruginosa; assay: Antibacterial susceptibility testing (MIC), P. aeruginosa; assay type: cell-based; settings: Pseudomonas aeruginosa, ATCC27853; strain ATCC 27853
# Method: as §3
# [13] = Hemolysis assay; assay type: cell-based; settings: human
# Method: Hemolytic activity against human erythrocytes taken from a healthy donor was measured as previously described. The hemolysis experiments were carried out in accordance with the guidelines of the United Arab Emirates University (UAEU) Research Ethics Review Board. All experimental protocols were approved by the Research Ethics Review Board of UAEU and informed consent was obtained from all donors.
# [14] = Solubility in kinase buffer; assay type: physicochemical; settings: kinase buffer in the presence of 10% DMSO
# [15] = DSM20231, strain DSM 20231, read-out: MIC S. aureus DSM 20231
# [16] = Staphylococcus epidermidis, DSM20044, strain DSM 20044, read-out: MIC S. epidermidis DSM 20044
# [17] = strain CFT 073, read-out: MIC E. coli CFT 073
smiles,measurement,setting,value
CNC(=O)NC(=O)CSc1nc2sc3c(c2c(=O)n1-c1ccccc1F)CCCC3 [S4],IC50,[1]; IC50 PhoR^S,> 5 mM
same,IC50,[2]; IC50 PhoR^E,> 5 mM
same,IC50,[3],> 5 mM
same,IC50,[4]; IC50 WalK,> 5 mM
same,MIC,[5]; [15],> 500 µg/mL
same,MIC,[6]; [16],> 500 µg/mL
same,MIC,[7]; [17],> 500 µg/mL
CC(OC(=O)c1cccc(S(=O)(=O)N2CCc3ccccc3C2)c1)C(=O)NC(N)=O (centres unmarked) [S2],IC50,[1]; IC50 PhoR^S,> 5 mM
same,IC50,[2]; IC50 PhoR^E,> 5 mM
same,IC50,[3],> 5 mM
same,IC50,[4]; IC50 WalK,> 5 mM
same,MIC,[5]; [15],> 500 µg/mL
same,MIC,[6]; [16],> 500 µg/mL
same,MIC,[7]; [17],> 500 µg/mL
Oc1cccc2[nH]c3ccccc3c12 [F2.8],inhibition at 2000 µM,[2],> 50%
same,IC50,[2]; read-out: IC50 PhoR^E,0.72 mM
same,IC50,[4]; read-out: IC50 WalK,> 2 mM
same,MIC,"[5]; ATCC reference strain 25293, read-out: MIC S. aureus 25293",250 µg/mL
same,MBC,"[5]; DSM20231, strain DSM 20231, read-out: MBC S. aureus DSM 20231",63 µg/mL
same,MIC,[5]; [15],31 to 250 µg/mL
same,MIC,"[5]; MRSA clinical isolate 127/08, read-out: MIC S. aureus 127/08",250 µg/mL
same,MIC,"[5]; MRSA clinical isolate 145/08, read-out: MIC S. aureus 145/08",250 µg/mL
same,MIC,"[5]; MRSA clinical isolate 274/08, read-out: MIC S. aureus 274/08",250 µg/mL
same,MIC,"[5]; MRSA, MRSA clinical isolate T4/6, read-out: MIC S. aureus T4/6",250 µg/mL
same,MIC,"[5]; MRSA, MRSA clinical isolate V4180, read-out: MIC S. aureus V4180",250 µg/mL
same,MIC,"[5]; MRSA, summary over strains, read-out: MICs for the MRSA strains and S. aureus 25293",125 to 500 µg/mL
same,MIC S. aureus DSM 20231,[5]; strain DSM 20231,31 µg/mL
same,MBC,"[6]; Staphylococcus epidermidis, DSM20044, strain DSM 20044",250 µg/mL
same,MIC,[6]; [16],31 to 500 µg/mL
same,MIC,"[6]; Staphylococcus epidermidis, clinical isolate T7/3, read-out: MIC S. epidermidis T7/3",63 µg/mL
same,MIC,"[6]; Staphylococcus epidermidis, clinical isolate T37/8, read-out: MIC S. epidermidis T37/8",250 µg/mL
same,MIC,"[6]; Staphylococcus epidermidis, clinical isolate T6119, read-out: MIC S. epidermidis T6119",250 µg/mL
same,MIC,"[6]; Staphylococcus epidermidis, strain RP62A (biofilm producer), read-out: MIC S. epidermidis RP62A",250 µg/mL
same,MIC,"[6]; Staphylococcus epidermidis, strain RP62A/1 (non-biofilm producer), read-out: MIC S. epidermidis RP62A/1",250 µg/mL
same,MIC,"[6]; Staphylococcus epidermidis, summary over strains, read-out: MICs for the S. epidermidis strains",31 to 250 µg/mL
same,MIC S. epidermidis DSM 20044,[6]; strain DSM 20044,31 µg/mL
same,MIC,"[7]; ATCC25276, strain ATCC 25276, read-out: MIC E. coli ATCC 25276",500 µg/mL
same,MBC,"[7]; strain CFT 073, read-out: MBC E. coli CFT 073",500 µg/mL
same,MIC,"[7]; summary over E. coli strains, read-out: antibacterial effects (MIC) against E. coli",≥ 63 µg/mL
same,MIC,"[8]; Streptococcus suis, read-out: MIC Streptococcus suis 3881/S10, strain 3881/S10",250 µg/mL
same,MIC Streptococcus suis 3881/S10,[8]; strain 3881/S10,125 µg/mL
same,MIC,[9],> 500 µg/mL
same,MIC,[10],> 500 µg/mL
same,MIC,[11],250 µg/mL
same,MIC,[12],> 500 µg/mL
same,HC50,[13],> 500 µg/mL
same,solubility in kinase buffer,[14],good solubility
Nc1ccc2c(c1)[nH]c1ccccc12 [F2.1],inhibition at 2000 µM,[2],> 50%
same,IC50,[2]; read-out: IC50 PhoR^E,0.24 mM
same,IC50,[4]; read-out: IC50 WalK,> 2 mM
same,MBC,"[5]; DSM20231, read-out: MBC S. aureus DSM 20231",> 500 µg/mL
same,MIC,"[5]; DSM20231, read-out: MIC S. aureus DSM 20231",8 µg/mL
same,MIC,"[6]; Staphylococcus epidermidis, DSM20044, read-out: MIC S. epidermidis DSM 20044",> 500 µg/mL
same,MIC,[7]; read-out: MIC E. coli CFT 073,> 500 µg/mL
same,solubility in kinase buffer,[14],good solubility
CC(NCc1cccc2ccccc12)c1ccc(F)cc1 (centres unmarked) [S8],IC50,[1]; read-out: IC50 PhoR^S,< 5 mM
same,IC50,[2]; IC50 PhoR^E,> 5 mM
same,IC50,[3],> 5 mM
same,IC50,[4]; IC50 WalK,> 5 mM
same,MIC,[5]; [15],> 500 µg/mL
same,MIC,[6]; [16],> 500 µg/mL
same,MIC,[7]; [17],> 500 µg/mL
